According to patent US11034715B2, “Ectonucleotidase inhibitors and methods of use thereof” (Calithera Biosciences, Inc., priority 2016, dated 2021):

molecular target: recombinant CD73 (Homo sapiens (Human), UniProt P21589); test: Inhibition of the CD73 enzyme in vitro (soluble recombinant CD73, AMP, Malachite Green); assay type: biochemical; details: recombinant CD73 0.5 nM, AMP 50 μM, 30 minutes at room temperature
Protocol: The concentration of inorganic phosphate was determined using a phosphate standard curve.

Chain of recombinant CD73 (P21589 27-547): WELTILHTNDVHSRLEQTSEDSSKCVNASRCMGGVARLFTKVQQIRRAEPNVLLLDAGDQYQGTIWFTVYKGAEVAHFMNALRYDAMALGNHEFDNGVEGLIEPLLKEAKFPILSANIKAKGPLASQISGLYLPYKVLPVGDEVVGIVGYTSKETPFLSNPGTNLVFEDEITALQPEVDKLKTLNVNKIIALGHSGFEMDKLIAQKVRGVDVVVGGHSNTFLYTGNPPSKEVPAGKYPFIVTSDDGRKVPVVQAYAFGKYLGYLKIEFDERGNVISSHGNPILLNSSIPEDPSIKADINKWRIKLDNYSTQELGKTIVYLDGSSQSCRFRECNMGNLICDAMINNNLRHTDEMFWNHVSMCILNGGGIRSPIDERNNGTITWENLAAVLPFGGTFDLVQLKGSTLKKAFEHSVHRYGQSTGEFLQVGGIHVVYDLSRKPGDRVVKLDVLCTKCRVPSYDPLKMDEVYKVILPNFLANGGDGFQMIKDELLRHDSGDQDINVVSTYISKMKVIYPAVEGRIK

Which IC50 does the source give for `Nc1nc(Cl)nc2c1ncn2[C@@H]1O[C@H](COC(Cc2ccc3ccccc3c2)(C(=O)O)C(=O)O)[C@@H](O)[C@@H]1F` [compound 17, 2-(((2R,3R,4S,5R)-5-(6-amino-2-chloro-9H-purin-9-yl)-4-fluoro-3-hydroxytetrahydrofuran-2-yl)methoxy)-2-(naphthalen-2-ylmethyl)malonic acid] here?
Its IC50 is 0.699 µM.

With `Nc1nc(Cl)nc2c1ncn2[C@@H]1O[C@H](COC(Cc2ccc(C(=O)O)cc2F)(C(=O)O)C(=O)O)[C@@H](O)[C@@H]1F` [compound 57, 2-(((2R,3R,4S,5R)-5-(6-amino-2-chloro-9H-purin-9-yl)-4-fluoro-3-hydroxytetrahydrofuran-2-yl)methoxy)-2-(4-carboxy-2-fluorobenzyl)malonic acid] as the compound, how does the IC50 read?
Its IC50 is 0.142 µM.

For `Nc1nc(Cl)nc2c1ncn2[C@@H]1O[C@H](COC(Cc2ccc(C(=O)O)cc2)(C(=O)O)C(=O)O)[C@H](O)[C@@H]1F` [compound 145], which IC50 is on record?
Its IC50 is 0.106 µM.

With `CCOC(=O)C(Cc1ccccc1)(OC[C@H]1O[C@@H](n2cnc3c(N)nc(Cl)nc32)[C@H](O)[C@@H]1O)c1nn[nH]n1` (stereo partly shown) [compound 193] as the compound, how does the IC50 read?
Its IC50 is > 50 µM.

For `Nc1nc(Cl)nc2c1ncn2[C@@H]1O[C@H](COC(Cc2cc(-c3ccccc3)no2)(C(=O)O)C(=O)O)[C@@H](O)[C@@H]1F` [compound 61, 2-(((2R,3R,4S,5R)-5-(6-amino-2-chloro-9H-purin-9-yl)-4-fluoro-3-hydroxytetrahydrofuran-2-yl)methoxy)-2-((3-phenylisoxazol-5-yl)methyl)malonic acid], which IC50 is on record?
The IC50 was 2.25 µM.

Which IC50 does the source give for `Nc1nc(Cl)nc2c1ncn2[C@@H]1O[C@H](COC(Cc2ccc(-c3cncnc3)cc2)(C(=O)O)C(=O)O)[C@@H](O)[C@@H]1F` [compound 143] here?
Its IC50 is 0.136 µM.

With `C[C@@]1(F)[C@H](O)[C@@H](COC(Cc2ccc(C(=O)O)cc2)(C(=O)O)C(=O)O)O[C@H]1n1cnc2c(N)nc(Cl)nc21` [compound 117] as the compound, how does the IC50 read?
Its IC50 is 63.9 µM.

Which IC50 does the source give for `N#Cc1ccccc1-c1ccc(CC(OC[C@H]2O[C@@H](n3cnc4c(N)nc(Cl)nc43)[C@@H](F)[C@@H]2O)(C(=O)O)C(=O)O)cc1` [compound 95] here?
The IC50 was 0.105 µM.

Which IC50 does the source give for `Nc1nc(Cl)nc2c1ncn2[C@@H]1O[C@H](COC(Cc2cccc(C(F)(F)F)c2)(C(=O)O)C(=O)O)[C@@H](O)[C@@H]1F` [compound 16, 2-(((2R,3R,4S,5R)-5-(6-amino-2-chloro-9H-purin-9-yl)-4-fluoro-3-hydroxytetrahydrofuran-2-yl)methoxy)-2-(3-(trifluoromethyl)benzyl)malonic acid] here?
The IC50 was 0.257 µM.

`Nc1nc(Cl)nc2c1ncn2[C@@H]1O[C@H](COC(Cc2csc(C(=O)O)c2)(C(=O)O)C(=O)O)[C@@H](O)[C@@H]1F` [compound 76, 2-(((2R,3R,4S,5R)-5-(6-amino-2-chloro-9H-purin-9-yl)-4-fluoro-3-hydroxytetrahydro-furan-2-yl)methoxy)-2-((5-carboxythiophen-3-yl)methyl)malonic acid] was tested. Which IC50 did it give?
Its IC50 is 0.074 µM.

With `Nc1nc(Cl)nc2c1ncn2[C@@H]1O[C@H](COC(Cc2cccc(Oc3ccccc3)c2)(C(=O)O)C(=O)O)[C@@H](O)[C@@H]1F` [compound 13, 2-(((2R,3R,4S,5R)-5-(6-amino-2-chloro-9H-purin-9-yl)-4-fluoro-3-hydroxytetrahydrofuran-2-yl)methoxy)-2-(3-phenoxybenzyl)malonic acid] as the compound, how does the IC50 read?
Its IC50 is 0.403 µM.

`Nc1nc(Cl)nc2c1ncn2[C@@H]1O[C@H](COC(Cc2csc(C(=O)O)n2)(C(=O)O)C(=O)O)[C@@H](O)[C@@H]1F` [compound 68, 2-(((2R,3R,4S,5R)-5-(6-amino-2-chloro-9H-purin-9-yl)-4-fluoro-3-hydroxytetrahydro-furan-2-yl)methoxy)-2-((2-carboxythiazol-4-yl)methyl)malonic acid] was tested. Which IC50 did it give?
The IC50 was 0.322 µM.

Which IC50 does the source give for `Nc1nc(Cl)nc2c1ncn2[C@@H]1O[C@H](COC(Cc2ccc(CC(=O)O)cc2)(C(=O)O)C(=O)O)[C@@H](O)[C@@H]1F` [compound 78, 2-(((2R,3R,4S,5R)-5-(6-amino-2-chloro-9H-purin-9-yl)-4-fluoro-3-hydroxytetrahydrofuran-2-yl)methoxy)-2-(4-(carboxymethyl)benzyl) malonic acid] here?
Its IC50 is 0.086 µM.
